Consider 4 compounds from PubChem BioAssay AID493010 (Sanford-Burnham Center for Chemical Genomics, 2011).

This data set has as its system 1x PBS pH 7.4 stability, LC/MS/MS, 48 h RT. Nature of the data set: percent parent left in PBS – biochemical, 1x PBS, pH 7.4, ADME assay (AID 493010). Conditions: stronger effect = lower value.

Each structure is given as a SMILES string.

With `CC(C)(C)c1ccc(C(=O)Nc2cc(Cl)c(Br)cc2C(=O)O)cc1`, the percent remaining worked out at 108%. For `CC(C)(C)c1ccc(C(=O)Nc2cc(Cl)c(Cl)cc2C(=O)O)cc1` the value was 124%.

In the case of `COc1ccc(C2CC(c3ccccc3)=NN2c2ccc(S(N)(=O)=O)cc2)cc1` (centres undefined), the percent remaining is 27%. For `COc1cccc(C2=NN(c3ccc(S(N)(=O)=O)cc3)C(c3ccc(Br)cc3)C2)c1` (centres undefined) the value was 10.6%.
